Experiment [1] addresses T1, hRIPK1 (aa 1-375) fusion protein (Homo sapiens, UniProt Q13546).
T1 construct: hRIPK1 (aa 1-375) fusion protein
T1 sequence (Q13546 1-375): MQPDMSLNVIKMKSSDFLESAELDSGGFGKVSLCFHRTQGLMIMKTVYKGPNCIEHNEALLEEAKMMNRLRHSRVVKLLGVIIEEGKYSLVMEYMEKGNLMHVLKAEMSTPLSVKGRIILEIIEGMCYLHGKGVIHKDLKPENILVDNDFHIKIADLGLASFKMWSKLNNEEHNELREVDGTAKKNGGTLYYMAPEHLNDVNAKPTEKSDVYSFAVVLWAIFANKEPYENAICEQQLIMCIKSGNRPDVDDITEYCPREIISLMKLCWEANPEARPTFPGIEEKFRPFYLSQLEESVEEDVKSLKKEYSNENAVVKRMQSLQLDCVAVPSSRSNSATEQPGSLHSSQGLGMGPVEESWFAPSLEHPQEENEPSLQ
In words: Receptor-Interacting Protein Kinase 1 inhibition, ADP Glo assay (conversion of ATP to ADP due to autophosphorylation). It counts as biochemical. As to conditions: ATP 50 μM, 30 min preincubation, 240 min incubation, room temperature, DMSO 1%. In short, it runs like this:
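The readout was ADP-Glo luminescence after a 240 min rt autophosphorylation reaction with 50 μM ATP, following 30 min preincubation of 3.6 μg/ml hRIPK1 (aa 1-375) fusion with compound at 33300-1.69 nM final in 1% DMSO. Values came from Levenberg-Marquardt nonlinear fits.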

The test system of experiment [2] is U937 cells. In words: Cellular assay in U937 cells to measure activity of RIPK1-inhibitors on cell death (necroptosis). It counts as cell-based. As to conditions: overnight (18 to 24 hrs), 37° C., MTS readout.
The mark [3] stands for this setting: Homo sapiens, U-937, TNFα/zVAD.fmk induced cell death (necroptosis).
Where [4] appears, read: TNFα/zVAD.fmk induced cell death (necroptosis).

Each structure is given as a SMILES string. pIC50: −log10 of the molar value.

`NC(=O)c1ccnc(N[C@H]2CC[C@@H](C(=O)N3OCC[C@H]3c3ccc(Cl)cc3)CC2)n1` [Compound 12, cis-2-((4-((S)-3-(4-chlorophenyl)isoxazolidine-2-carbonyl)cyclohexyl)amino)pyrimidine-4-carboxamide]: the negative-log IC50 (pIC50) in experiment [1] was 7.46; in experiment [2] (setting [3]) it was 6.25.

Regarding `N#Cc1cncc([C@@H]2CCON2C(=O)[C@H]2CC[C@H](COc3cc(C#N)ccn3)CC2)c1` [Compound 94, trans-5-((S)-2-(4-(((4-cyanopyridin-2-yl)oxy)methyl)cyclohexane-1-carbonyl)isoxazolidin-3-yl)nicotinonitrile], the negative-log IC50 (pIC50) in experiment [1] was 7.24; in experiment [2] (setting [3]), 6.86.

As to `N#Cc1cc(N[C@H]2C[C@@H](C(=O)N3OCC[C@H]3c3cncc(F)c3)C2)ccc1F` [Compound 33, cis-2-fluoro-5-((3-((S)-3-(5-fluoropyridin-3-yl)isoxazolidine-2-carbonyl)cyclobutyl)amino)benzonitrile], the pIC50 in experiment [1] was 7.66; in experiment [2] (setting [4]), 7.21.

For `O=C([C@H]1C[C@@H](n2cnc3ccccc32)C1)N1OCC[C@H]1c1cc(F)cc(F)c1` [Compound 41, cis-(3-(1H-benzo[d]imidazol-1-yl)cyclobutyl)((S)-3-(3,5-difluorophenyl)isoxazolidin-2-yl)methanone], the results for the negative logarithm of the IC50 (pIC50) in experiment [1] and in experiment [2] (setting [3]) were 7.80 and 7.21, respectively.

`O=C1CCCN1c1ccc(Cl)c(OC[C@H]2CC[C@H](C(=O)N3OCC[C@H]3c3cc(F)cc(F)c3)CC2)c1` [Compound 60, trans-1-(4-chloro-3-((4-((S)-3-(3,5-difluorophenyl)isoxazolidine-2-carbonyl)cyclohexyl)methoxy)phenyl)pyrrolidin-2-one]: the pIC50 in experiment [1] is 7.12; in experiment [2] (setting [3]), 6.95.

Consider `O=C([C@H]1C[C@@H](n2ncc3cc(F)ccc32)C1)N1OCC[C@H]1c1cc(F)cc(F)c1` [Compound 96, cis-[(3S)-3-(3,5-difluorophenyl)isoxazolidin-2-yl]-[3-(5-fluoroindazol-1-yl)cyclobutyl]methanone], for which the pIC50 in experiment [1] was 7.33; in experiment [2] (setting [3]), 6.04.

Take `Cn1ccn(-c2ccc(OC[C@H]3CC[C@H](C(=O)N4OCC[C@H]4c4cc(F)cc(F)c4)CC3)c(F)c2)c1=O` [Compound 68, trans-1-(4-((4-((S)-3-(3,5-difluorophenyl)isoxazolidine-2-carbonyl)cyclohexyl)methoxy)-3-fluorophenyl)-3-methyl-1,3-dihydro-2H-imidazol-2-one]: the pIC50 in experiment [1] was 7.72; in experiment [2] (setting [3]) it was 8.10.

For the compound `Cn1ccn(-c2ccc(OC[C@H]3CC[C@H](C(=O)N4OCC[C@H]4c4cc(F)cc(C#N)c4)CC3)c(F)c2)c1=O` [Compound 78, trans-3-fluoro-5-((S)-2-(4-((2-fluoro-4-(3-methyl-2-oxo-2,3-dihydro-1H-imidazol-1-yl)phenoxy)methyl)cyclohexane-1-carbonyl)isoxazolidin-3-yl)benzonitrile], the figures for the pIC50 in experiment [1] and in experiment [2] (setting [3]) were 7.37 and 8.05, respectively.

As to `NC(=O)c1cc(N[C@H]2CC[C@@H](C(=O)N3OCC[C@H]3c3ccc(Cl)cc3)CC2)ncn1` [Compound 13, cis-6-((4-((S)-3-(4-chlorophenyl)isoxazolidine-2-carbonyl)cyclohexyl)amino)pyrimidine-4-carboxamide], the negative-log IC50 (pIC50) was 6.94 in experiment [1] and 6.34 in experiment [2] (setting [3]).

Take `N#Cc1cc(F)cc([C@@H]2CCON2C(=O)C2CCC(COc3cc(C(N)=O)ncn3)C2)c1` (single isomer, unassigned; stereoisomer 2) [Compound 116]: the results for the pIC50 in experiment [1] and in experiment [2] (setting [4]) were 7.64 and 6.42, respectively.

For the compound `NC(=O)c1cc(OCC2CCCC(C(=O)N3OCC[C@H]3c3cc(F)cc(F)c3)CC2)ncn1` (single isomer, unassigned; stereoisomer 4) [Compound 125], the pIC50 in experiment [1] was 7.41; in experiment [2] (setting [4]), 6.46.

As to `N#Cc1cc(F)cc([C@@H]2CCON2C(=O)[C@H]2C[C@@H](n3cc4cc(F)ccc4n3)C2)c1` [Compound 109, cis-3-fluoro-5-[(3S)-2-[3-(5-fluoroindazol-2-yl)cyclobutanecarbonyl]isoxazolidin-3-yl]benzonitrile], the results for the negative logarithm of the IC50 (pIC50) in experiment [1] and in experiment [2] (setting [3]) were 7.26 and 6.13, respectively.

For the compound `N#Cc1cc(F)cc(N[C@H]2C[C@@H](C(=O)N3OCC[C@H]3c3cncc(F)c3)C2)c1` [Compound 36, cis-3-fluoro-5-((3-((S)-3-(5-fluoropyridin-3-yl)isoxazolidine-2-carbonyl)cyclobutyl)amino)benzonitrile], the negative logarithm of the IC50 (pIC50) was 7.38 in experiment [1] and 7.01 in experiment [2] (setting [3]).

As to `CC1(C)OC(=O)N(c2ccc(F)c(OC[C@H]3CC[C@H](C(=O)N4OCC[C@H]4c4cc(F)cc(C#N)c4)CC3)c2)C1=O` [Compound 79, trans-3-((S)-2-(4-((5-(5,5-dimethyl-2,4-dioxooxazolidin-3-yl)-2-fluorophenoxy)methyl)cyclohexane-1-carbonyl)isoxazolidin-3-yl)-5-fluorobenzonitrile], the pIC50 in experiment [1] was 7.70; in experiment [2] (setting [3]), 8.05.

For the compound `N#Cc1cc(N[C@H]2C[C@@H](C(=O)N3OCC[C@H]3c3cc(F)cc(F)c3)C2)ncn1` [Compound 18, cis-6-((3-((S)-3-(3,5-difluorophenyl)isoxazolidine-2-carbonyl)cyclobutyl)amino)pyrimidine-4-carbonitrile], the pIC50 in experiment [1] was 7.39; in experiment [2] (setting [3]), 6.79.

In the case of `NC(=O)c1ccc(OC[C@H]2CC[C@H](C(=O)N3OCC[C@H]3c3cnccn3)CC2)c(F)c1` [Compound 113, trans-3-fluoro-4-[[4-[(3S)-3-pyrazin-2-ylisoxazolidine-2-carbonyl]cyclohexyl]methoxy]benzamide], the pIC50 in experiment [1] was 7.42; in experiment [2] (setting [3]), 7.01.

Turning to `CCOC(=O)c1ncnc(N[C@H]2C[C@@](C)(C(=O)N3OCC[C@H]3c3cc(F)cc(F)c3)C2)c1F` [Compound 8, ethyl cis-6-((3-((S)-3-(3,5-difluorophenyl)isoxazolidine-2-carbonyl)-3-methylcyclobutyl)amino)-5-fluoropyrimidine-4-carboxylate], the pIC50 is 7.60 in experiment [1] and 6.71 in experiment [2] (setting [3]).

Take `N#Cc1cc(N[C@H]2C[C@@H](C(=O)N3OCC[C@H]3c3ccc(Cl)cc3)C2)ncn1` [Compound 23, cis-6-((3-((S)-3-(4-chlorophenyl)isoxazolidine-2-carbonyl)cyclobutyl)amino)pyrimidine-4-carbonitrile]: the negative-log IC50 (pIC50) in experiment [1] was 7.36; in experiment [2] (setting [3]), 6.63.

Consider `N#Cc1cc(F)cc([C@@H]2CCON2C(=O)[C@H]2C[C@H](n3ccc4cc(F)ccc43)C2)c1` [Compound 105, trans-3-fluoro-5-[(3S)-2-[3-(5-fluoroindol-1-yl)cyclobutanecarbonyl]isoxazolidin-3-yl]benzonitrile], for which the figures for the pIC50 in experiment [1] and in experiment [2] (setting [3]) were 7.44 and 6.69, respectively.

`N#Cc1cncc([C@@H]2CCON2C(=O)[C@H]2CC[C@H](COc3ccc(Cl)c(C(N)=O)c3)CC2)c1` [Compound 75, trans-2-chloro-5-((4-((S)-3-(5-cyanopyridin-3-yl)isoxazolidine-2-carbonyl)cyclohexyl)methoxy)benzamide]: the results for the negative logarithm of the IC50 (pIC50) in experiment [1] and in experiment [2] (setting [3]) were 7.37 and 6.65, respectively.

Take `NC(=O)c1cc(OC[C@H]2CC[C@H](C(=O)N3OCC[C@H]3c3cc(F)cc(F)c3)CC2)ncn1` [Compound 47, trans-6-((4-((S)-3-(3,5-difluorophenyl)isoxazolidine-2-carbonyl)cyclohexyl)methoxy)pyrimidine-4-carboxamide]: the results for the pIC50 in experiment [1] and in experiment [2] (setting [3]) were 7.30 and 7.68, respectively.

As to `NS(=O)(=O)c1cccc(OC[C@H]2CC[C@H](C(=O)N3OCC[C@H]3c3cc(F)cc(F)c3)CC2)c1` [Compound 66, trans-3-((4-((S)-3-(3,5-difluorophenyl)isoxazolidine-2-carbonyl)cyclohexyl)methoxy)benzenesulfonamide], the negative-log IC50 (pIC50) in experiment [1] is 7.46; in experiment [2] (setting [3]), 8.10.

As to `N#Cc1cc(OC[C@H]2CC[C@@H](C(=O)N3OCC[C@H]3c3cc(F)cc(F)c3)CC2)ncn1` [Compound 55, cis-6-((4-((S)-3-(3,5-difluorophenyl)isoxazolidine-2-carbonyl)cyclohexyl)methoxy)pyrimidine-4-carbonitrile], the pIC50 in experiment [1] was 7.25; in experiment [2] (setting [3]) it was 5.82.

As to `N#Cc1cc(F)cc([C@@H]2CCON2C(=O)[C@H]2CC[C@H](CNc3cc(C(N)=O)ncn3)CC2)c1` [Compound 29, trans-6-(((4-((S)-3-(3-cyano-5-fluorophenyl)isoxazolidine-2-carbonyl)cyclohexyl)methyl)amino)pyrimidine-4-carboxamide], the pIC50 in experiment [1] is 7.07; in experiment [2] (setting [3]), 6.25.

Take `N#Cc1cncc([C@@H]2CCON2C(=O)[C@H]2CC[C@H](COc3cccc(C(N)=O)c3)CC2)c1` [Compound 73, trans-3-((4-((S)-3-(5-cyanopyridin-3-yl)isoxazolidine-2-carbonyl)cyclohexyl)methoxy)benzamide]: the negative logarithm of the IC50 (pIC50) in experiment [1] was 7.54; in experiment [2] (setting [3]), 7.59.

Values taken from US20260317312A1, “ISOXAZOLIDINES AS RIPK1 INHIBITORS AND USE THEREOF” (GENZYME CORPORATION, priority 2023, published 2026).
